Source: PMC9301969 (ACS Omega, 2022)

Biological target: human serum albumin (HSA, nonglycated) (Homo sapiens, UniProt P02768)
Assay: fluorescence polarization
Assay type: binding

Chain of human serum albumin (HSA, nonglycated) (P02768 25-609): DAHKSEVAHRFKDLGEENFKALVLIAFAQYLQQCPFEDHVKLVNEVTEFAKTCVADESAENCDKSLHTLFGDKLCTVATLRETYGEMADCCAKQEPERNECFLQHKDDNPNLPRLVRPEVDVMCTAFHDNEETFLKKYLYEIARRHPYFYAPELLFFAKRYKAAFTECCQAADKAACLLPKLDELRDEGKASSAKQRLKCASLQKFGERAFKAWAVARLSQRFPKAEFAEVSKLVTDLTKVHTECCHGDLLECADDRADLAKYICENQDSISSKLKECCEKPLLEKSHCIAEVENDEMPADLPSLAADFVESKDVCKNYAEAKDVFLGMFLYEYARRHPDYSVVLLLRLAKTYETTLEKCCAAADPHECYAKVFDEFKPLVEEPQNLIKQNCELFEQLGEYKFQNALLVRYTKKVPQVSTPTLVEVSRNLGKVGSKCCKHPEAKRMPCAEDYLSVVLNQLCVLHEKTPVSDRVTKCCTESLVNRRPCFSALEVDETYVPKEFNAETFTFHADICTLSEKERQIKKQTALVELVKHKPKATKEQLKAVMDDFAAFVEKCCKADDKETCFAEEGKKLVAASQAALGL

Kd: 2000 nM
Compound: O=C(O)CCN(Cc1ccc(C(F)(F)F)cc1B(O)O)Cc1c2ccccc2c(CN(CCC(=O)O)Cc2ccc(C(F)(F)F)cc2B(O)O)c2ccccc12 [compound 8, 3,3′-((anthracene-9,10-diylbis(methylene))bis((2-borono-4-(trifluoromethyl)benzyl)azanediyl))dipropionic acid]
